Structures can show the parent of a compound that is named as a salt. Where two headings read alike, the source gives them in different places.
Legend:
[1] = molecular target: T1, human serum albumin (HSA) (Homo sapiens, UniProt P02768); experiment: Fluorescence quenching of human serum albumin by mycotoxins; assay type: binding; design: purchased Merck (Darmstadt, Germany); conditions: for HSA logKSV (±SEM): Stern–Volmer quenching constant KSV in L/mol, linear fitting
Description: (§1) Fluorescence emission spectra were collected employing a Hitachi F-4500 fluorescence spectrophotometer (Tokyo, Japan) at 25 °C and in the presence of air. UV–Vis absorption spectra of AS, AME, and AMS were recorded using a Jasco V730 UV–Vis spectrophotometer (Tokyo, Japan). In fluorescence spectroscopic studies, the inner-filter effects of mycotoxins were corrected as has been previously reported.
(§2) Then, fluorescence quenching studies were also performed, where increasing amounts of AS, AME, or AMS (final concentrations: 0–5 μM) were added to 2 μM concentrations of albumins (HSA, BSA, PSA, or RSA), after which emission spectra were recorded (λex = 295 nm). After the correction of the inner-filter effects, mycotoxin-induced changes were evaluated at 340 nm.
(§3) Quenching experiments were evaluated by employing the graphical application of the Stern–Volmer equation (linear fitting) and using HyperQuad2006 software (non-linear fitting). Stern–Volmer quenching constants (KSV; unit: L/mol) were determined based on the Stern–Volmer equation [30]:(1) I0/I=1+KSV×Q where I0 and I are the fluorescence emission intensities of albumin in the absence and presence of the quencher (mycotoxins), respectively; [Q] is the molar (mol/L) concentration of mycotoxins. Binding constants (K; unit: L/mol) were calculated using HyperQuad2006 software, as has been previously reported.

[2] = Fluorescence spectroscopic study of mycotoxin–SGD complexes; assay type: binding; conditions: for SGD logK (±SEM) BH-Plot / SGD logK (±SEM) Hyperquad: binding constant K in L/mol; for SGD logK (±SEM) BH-Plot: Benesi–Hildebrand plot; for SGD logK (±SEM) BH-Plot / SGD logK (±SEM) Hyperquad / logK with SGD (approximate): sodium acetate buffer pH 5.0; for logK of mycotoxin–SGD complexes at pH 10.0: sodium borate buffer pH 10.0
Description: as §1
(§4) To examine the interaction of mycotoxins with the two CDs selected (SBECD and SGD), increasing amounts of the CDs (final concentrations: 0–10 mM) were added to mycotoxins (each 1 μM), then fluorescence emission spectra were recorded (λex = 335 nm for AS/AMS and 350 nm for AME; λem = 455 nm for AS, 485 nm for AME, and 460 nm for AMS). Binding constants (K, unit: L/mol) of mycotoxin–CD complexes were calculated employing the graphical application of the Benesi–Hildebrand equation (linear fitting) and using Hyperquad software (non-linear fitting). The Benesi–Hildebrand equation [25, 43] has been described as:(2) F0/F−F0=1/A+1/A×K×CD^n where, F0 and F are the fluorescence emission intensities of the mycotoxin in the absence and presence of CDs, respectively. [CD] is the molar concentration (mol/L) of the CD, while A is a constant, and n is the number of binding sites. Hyperquad evaluations were performed as has been previously reported.

rat serum albumin (RSA) [3] = molecular target: T2, rat serum albumin (RSA) (Rattus norvegicus, UniProt P02770); experiment: Fluorescence quenching of rat serum albumin by mycotoxins; assay type: binding; conditions: for RSA logKSV (±SEM): Stern–Volmer quenching constant KSV in L/mol, linear fitting
T2 construct: purchased Merck (Darmstadt, Germany)
T2 sequence (P02770 25-608): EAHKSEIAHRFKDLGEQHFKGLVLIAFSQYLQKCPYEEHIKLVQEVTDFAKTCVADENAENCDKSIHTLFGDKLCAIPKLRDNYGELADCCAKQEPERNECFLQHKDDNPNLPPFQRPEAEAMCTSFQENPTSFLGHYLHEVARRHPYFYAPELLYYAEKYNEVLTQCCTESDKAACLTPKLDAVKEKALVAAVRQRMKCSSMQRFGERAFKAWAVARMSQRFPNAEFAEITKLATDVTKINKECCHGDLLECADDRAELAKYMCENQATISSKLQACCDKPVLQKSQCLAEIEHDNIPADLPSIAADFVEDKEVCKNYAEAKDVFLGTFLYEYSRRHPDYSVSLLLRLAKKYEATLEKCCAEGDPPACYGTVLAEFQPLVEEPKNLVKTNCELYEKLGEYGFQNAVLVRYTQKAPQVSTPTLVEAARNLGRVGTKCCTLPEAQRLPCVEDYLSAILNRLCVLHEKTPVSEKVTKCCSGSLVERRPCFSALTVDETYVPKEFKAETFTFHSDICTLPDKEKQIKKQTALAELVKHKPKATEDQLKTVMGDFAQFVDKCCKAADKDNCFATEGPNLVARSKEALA
Description: as §1, §2, §3

[4] = Fluorescence spectroscopic study of mycotoxin–SBECD complexes; assay type: binding; conditions: for SBECD logK (±SEM) BH-Plot / SBECD logK (±SEM) Hyperquad: binding constant K in L/mol; for SBECD logK (±SEM) BH-Plot: Benesi–Hildebrand plot; for SBECD logK (±SEM) BH-Plot / SBECD logK (±SEM) Hyperquad / logK with SBECD (approximate): sodium acetate buffer pH 5.0
Description: as §1, §4

[5] = molecular target: T1, human serum albumin (HSA); experiment: Ultracentrifugation studies (unbound fraction in presence of HSA); assay type: binding; design: purchased Merck (Darmstadt, Germany)
Description: To confirm the results of the quenching studies, the unbound fractions of AS, AME, and AMS were quantified in the presence of HSA. Applying the optimal conditions of ultracentrifugation, we can sediment albumin and albumin-bound molecules without the disruption of ligand–HSA interactions, then the free unbound fraction of the ligand molecule can be quantified from the protein-free supernatant. Samples contained AS, AME, or […] (each 10 μM) with HSA (20, 60, and 180 μM) in PBS (pH 7.4). These samples (900 μL) were centrifuged for 16 h at 170,000 g and 20 °C in 11 × 34 mm PC tubes (Beckman Coulter, Brea, CA, US), employing a Beckman Coulter Optima MAX-XP tabletop ultracentrifuge (with MLA-130 fixed-angle rotor). Then the concentrations of AS, AME, and AMS were directly analyzed from the supernatants with HPLC-FLD (see details in Section 3.7).
Assuming the 1:1 stoichiometry of complex formation, the binding constants (K) were calculated based on the following equation [36]:(3) K=MA/M×A where [M], [A], and [MA] are the molar concentrations (mol/L) of the free unbound mycotoxin, the free unbound albumin, and the mycotoxin–albumin complex, respectively.

[6] = molecular target: T3, porcine serum albumin (PSA) (Sus scrofa, UniProt P08835); experiment: Fluorescence quenching of porcine serum albumin by mycotoxins; assay type: binding; conditions: for PSA logKSV (±SEM): Stern–Volmer quenching constant KSV in L/mol, linear fitting
T3 construct: purchased Merck (Darmstadt, Germany)
T3 sequence (P08835 25-607): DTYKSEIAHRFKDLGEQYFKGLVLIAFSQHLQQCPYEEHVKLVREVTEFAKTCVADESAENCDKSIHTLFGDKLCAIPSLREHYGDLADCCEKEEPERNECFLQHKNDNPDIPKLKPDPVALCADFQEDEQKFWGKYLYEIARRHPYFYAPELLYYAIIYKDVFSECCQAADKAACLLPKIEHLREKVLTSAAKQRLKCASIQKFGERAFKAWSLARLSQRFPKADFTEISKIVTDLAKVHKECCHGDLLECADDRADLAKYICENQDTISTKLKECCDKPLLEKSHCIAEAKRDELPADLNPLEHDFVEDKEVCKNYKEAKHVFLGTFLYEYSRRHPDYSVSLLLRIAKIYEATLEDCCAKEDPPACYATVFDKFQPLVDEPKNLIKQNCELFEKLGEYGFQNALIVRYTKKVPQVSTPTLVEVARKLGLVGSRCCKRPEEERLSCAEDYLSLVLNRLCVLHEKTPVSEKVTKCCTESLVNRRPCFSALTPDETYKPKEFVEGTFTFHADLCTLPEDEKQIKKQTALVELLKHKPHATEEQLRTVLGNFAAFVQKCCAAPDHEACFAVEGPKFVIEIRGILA
Description: as §1, §2, §3

[7] = molecular target: T4, bovine serum albumin (BSA) (Bos taurus, UniProt P02769); experiment: Fluorescence quenching of bovine serum albumin by mycotoxins; assay type: binding; conditions: for BSA logKSV (±SEM): Stern–Volmer quenching constant KSV in L/mol, linear fitting; for effect of environmental pH on binding to BSA: pH 5.0, 6.5, 7.4, 8.5, AME: pH 8.5 vs acidic and physiological conditions
T4 construct: purchased Merck (Darmstadt, Germany)
T4 sequence (P02769 25-607): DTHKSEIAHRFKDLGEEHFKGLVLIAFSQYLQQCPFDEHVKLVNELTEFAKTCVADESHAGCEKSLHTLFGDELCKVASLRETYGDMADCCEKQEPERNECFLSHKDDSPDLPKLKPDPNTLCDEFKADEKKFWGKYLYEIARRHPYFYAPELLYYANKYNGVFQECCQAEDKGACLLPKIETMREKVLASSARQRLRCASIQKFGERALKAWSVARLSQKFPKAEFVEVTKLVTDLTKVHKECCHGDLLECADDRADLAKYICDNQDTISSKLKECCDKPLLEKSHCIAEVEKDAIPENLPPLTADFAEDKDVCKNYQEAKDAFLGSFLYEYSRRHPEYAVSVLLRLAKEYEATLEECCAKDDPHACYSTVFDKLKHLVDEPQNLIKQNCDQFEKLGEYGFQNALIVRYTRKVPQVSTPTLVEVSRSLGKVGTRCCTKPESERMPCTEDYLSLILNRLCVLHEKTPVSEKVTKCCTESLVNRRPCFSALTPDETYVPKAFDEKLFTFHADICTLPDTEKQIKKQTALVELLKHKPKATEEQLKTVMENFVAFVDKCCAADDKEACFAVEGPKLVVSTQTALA
Description: as §1, §2, §3

[8] = molecular target: T1, human serum albumin (HSA); experiment: Ultrafiltration studies with Site I, Site II and Heme site markers; assay type: binding; design: purchased Merck (Darmstadt, Germany); conditions: mycotoxin 20 μM, PBS pH 7.4; for effect on filtered fraction of S-camptothecin (Heme site marker): camptothecin 1.0 μM + HSA 2.0 μM; for effect on filtered fraction of naproxen (Site II marker): naproxen 1.0 μM + HSA 1.5 μM; for effect on filtered fraction of warfarin (Site I marker): warfarin 1.0 μM + HSA 5.0 μM
Description: To test the binding sites of mycotoxin metabolites on HSA, ultrafiltration experiments were performed, where warfarin, naproxen, and S-camptothecin were used as Site I, Site II, and Heme site markers, respectively. Ultrafiltration studies were performed as described earlier, with minor modifications. Briefly, warfarin and naproxen samples were filtered using Amicon Ultra centrifugal filters (Merck, Darmstadt, Germany) with a 30 kDa molecular weight cut-off (MWCO) value. Camptothecin barely passed through these filters; therefore, the displacement of this Heme site marker was examined employing Pall Microsep Advance centrifugal devices (MWCO: 10 kDa; VWR, Budapest, Hungary). Each filter unit was washed once with water and once with PBS (pH 7.4). Thereafter, samples were centrifuged with a fixed angle rotor for 10 min at 7500 g and 25 °C. Before ultrafiltration, samples contained warfarin (1.0 μM) + HSA (5.0 μM), naproxen (1.0 μM) + HSA (1.5 μM), or camptothecin (1.0 μM) + HSA (2.0 μM) in the absence and presence of AS, AME, or AMS (each 20 μM) in PBS (pH 7.4). The filters used retain HSA (66.5 kDa) and albumin-bound ligands. Therefore, the elevated concentration of the site marker in the filtrate indicates its displacement from the protein [30, 36]. The concentrations of warfarin and camptothecin in the filtrate were analyzed by HPLC-FLD, while naproxen was quantified by HPLC-UV as has been previously reported.

rat serum albumin (RSA) [9] = molecular target: T2, rat serum albumin (RSA); design: method as in PMID 31083629; conditions: previous study; cited from earlier work
[10] = molecular target: T1, human serum albumin (HSA); design: purchased Merck (Darmstadt, Germany); method as in PMID 31083629; conditions: previous study; cited from earlier work
[11] = molecular target: T1, human serum albumin (HSA); conditions: cited from earlier work
[12] = binding constant K in L/mol, fluorescence quenching, Hyperquad non-linear fitting, PBS pH 7.4, read-out: HSA logK (±SEM) (converted)
[13] = binding constant K in L/mol, fluorescence quenching, Hyperquad non-linear fitting, read-out: RSA logK (±SEM) (converted)
[14] = mycotoxin 10 μM, HSA 20, 60, 180 μM, PBS pH 7.4, Equation (3), 1:1 stoichiometry, read-out: logK of mycotoxin–HSA complexes (ultracentrifugation) (converted)
[15] = binding constant K in L/mol, fluorescence quenching, Hyperquad non-linear fitting, read-out: PSA logK (±SEM) (converted)
[16] = binding constant K in L/mol, fluorescence quenching, Hyperquad non-linear fitting, read-out: BSA logK (±SEM) (converted)

T1 sequence (P02768 25-609): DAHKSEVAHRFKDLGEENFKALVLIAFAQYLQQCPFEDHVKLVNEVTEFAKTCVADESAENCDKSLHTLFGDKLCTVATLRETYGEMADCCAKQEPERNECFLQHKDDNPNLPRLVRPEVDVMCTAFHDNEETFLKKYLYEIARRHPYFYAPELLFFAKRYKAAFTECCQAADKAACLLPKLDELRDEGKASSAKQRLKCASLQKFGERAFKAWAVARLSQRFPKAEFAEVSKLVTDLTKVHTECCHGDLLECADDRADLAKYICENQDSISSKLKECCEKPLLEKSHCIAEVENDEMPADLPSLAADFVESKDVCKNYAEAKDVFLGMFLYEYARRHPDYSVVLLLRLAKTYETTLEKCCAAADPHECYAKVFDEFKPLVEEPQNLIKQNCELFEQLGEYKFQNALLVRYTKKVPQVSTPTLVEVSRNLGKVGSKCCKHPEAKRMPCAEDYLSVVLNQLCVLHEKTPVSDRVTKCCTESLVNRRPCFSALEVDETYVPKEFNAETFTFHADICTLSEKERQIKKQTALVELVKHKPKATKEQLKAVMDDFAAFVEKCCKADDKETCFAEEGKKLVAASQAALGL

| Structure (SMILES) | HSA logKSV (±SEM) ([1]; PBS pH 7.4) | SGD logK (±SEM) BH-Plot [2] | SGD logK (±SEM) Hyperquad [2] | logK of mycotoxin–SGD complexes at pH 10.0 [2] | RSA logKSV (±SEM) (rat serum albumin (RSA) [3]) | SBECD logK (±SEM) BH-Plot [4] | SBECD logK (±SEM) Hyperquad [4] | PSA logKSV (±SEM) [6] | BSA logKSV (±SEM) [7] | effect of environmental pH on binding to BSA [7] | effect on filtered fraction of S-camptothecin (Heme site marker) [8] | effect on filtered fraction of naproxen (Site II marker) [8] | effect on filtered fraction of warfarin (Site I marker) [8] | Kd [1, 12] [nM] | logK with SGD (approximate) [2] | Kd (rat serum albumin (RSA) [3]; [13]) [nM] | logK with SBECD (approximate) [4] | Kd [5, 14] [nM] | Kd [6, 15] [nM] | Kd [7, 16] [nM] | further results |
| --- | --- | --- | --- | --- | --- | --- | --- | --- | --- | --- | --- | --- | --- | --- | --- | --- | --- | --- | --- | --- | --- |
| COc1cc(O)c2c(=O)oc3cc(O)cc(C)c3c2c1 [AME, alternariol-9-monomethylether] | 4.86 ± 0.05 | 3.95 ± 0.01 | 4.06 ± 0.01 | 4.25 ± 0.06 | 5.15 ± 0.06 | 3.46 ± 0.01 | 3.56 ± 0.01 | 4.73 ± 0.06 | 4.93 ± 0.05 | approximately ten-fold higher affinity | no or only slight effects | no or only slight effects | statistically significant (p < 0.05) impact |  |  |  |  |  |  |  | Kd [1]: 11500 nM; stability of AME–SGD complex compared to CD complexes of the sulfate metabolites ([2]; pH 5.0): ten-fold; Kd (rat serum albumin (RSA) [3]): 5130 nM; stability of AME–SBECD complex compared to CD complexes of the sulfate metabolites ([4]; pH 5.0): three-fold; Kd [5]: 4570 nM; Kd [6]: 14800 nM; Kd [7]: 9120 nM |
| Cc1cc(O)cc2oc(=O)c3c(O)cc(O)cc3c12 [AOH, Alternariol] |  |  |  |  |  |  |  |  |  |  |  |  |  |  |  |  |  |  |  |  | affinity for rat albumin compared to human or porcine albumins (rat serum albumin (RSA) [9]): almost eight-fold higher affinity; displacement of naproxen (Site II marker) from HSA [10]: slightly displaced; displacement of warfarin (Site I marker) from HSA [10]: strongly displaced; effect on filtered fraction of camptothecin (Heme site marker) [10]: did not affect; logK of AOH–HSA complex [11]: 5.6 |
| COc1cc(O)c2c(=O)oc3cc(OS(=O)(=O)O)cc(C)c3c2c1 [AMS, alternariol-9-monomethylether-3-sulfate ammonium salt] | 5.42 ± 0.06 | 2.95 ± 0.05 | 3.21 ± 0.04 | 3.39 ± 0.10 | 5.92 ± 0.03 | 2.96 ± 0.01 | 3.08 ± 0.01 | 5.60 ± 0.02 | 5.81 ± 0.01 | only minor changes | large | moderate | did not affect | 2630 | ≈ 3 | 741 | ≈ 3 | 3240 | 1660 | 933 |  |
| Cc1cc(OS(=O)(=O)O)cc2oc(=O)c3c(O)cc(O)cc3c12 [AS, Alternariol-3-sulfate ammonium salt] | 5.44 ± 0.07 | 2.83 ± 0.01 | 2.99 ± 0.03 | 3.18 ± 0.58 | 5.85 ± 0.03 | 3.02 ± 0.01 | 3.02 ± 0.03 | 5.57 ± 0.02 | 5.60 ± 0.01 | only minor changes | marked increases | lower but significant (p < 0.01) effect | marked increases | 2450 | ≈ 3 | 832 | ≈ 3 | 3160 | 1660 | 1620 |  |

From PMC9698663, “Testing Serum Albumins and Cyclodextrins as Potential Binders of the Mycotoxin Metabolites Alternariol-3-Sulfate, Alternariol-9-Monomethylether and Alternariol-9-Monomethylether-3-Sulfate” (International Journal of Molecular Sciences, 2022)
